Laboratory results published in patent US11530193B2, “Kinase inhibitors” (The University of Manchester, priority 2018, dated 2022).
pIC50: −log10 of the molar value. Structures can show the parent of a compound that is named as a salt. Where two headings read alike, the source gives them in different places.

How the values were obtained:
CAMK1D [1] = biological target: T1, CAMK1D (Homo sapiens (Human), UniProt Q8IU85); test: Tm-Shift assay (thermal melting, SYPRO Orange); type: binding; details: for ΔTm at 10 µM: read-out: CAMK1d Tm-Shift; for CAMK1d Tm-Shift: compound 10 μM, protein 2 μM, ΔTm obs vs protein without ligand, triplicate
SYK = SYK (Homo sapiens (Human), UniProt P43405); test: Tm-Shift assay (thermal melting, SYPRO Orange); type: binding;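 further: recombinant His-tagged protein made in Sf9 insect cells by baculovirus, in HEPES NaCl buffer, heated stepwise with fluorescence recorded at every temperature step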
CAMK1D [2] = biological target: T1, CAMK1D; test: Biochemical CaMK1D enzymatic activity assay (ADP-Glo Kinase Assay); details: 3 nM CaMK1D, 1 μM Calmodulin, […] Autocamtide-2, 10 μM ATP, 25C, 2 hours
[3] = compound 10 μM, protein 2 μM, ΔTm obs vs protein without ligand, triplicate

CS(=O)(=O)c1cc(Nc2nc(N3CCC[C@H](N)C3)ncc2C(N)=O)cc(S(C)(=O)=O)c1.Cl [Example 9, (S)-2-(3-aminopiperidin-1-yl)-4-((3,5-bis(methylsulfonyl)phenyl)amino)pyrimidine-5-carboxamide hydrochloride]
ΔTm at 10 µM (CAMK1D [1]): 10.1 °C | SYK Tm-Shift (SYK): 0.2 °C

CN(C)C(=O)c1cc(Nc2nc(N3CCC[C@H](N)C3)ncc2C(N)=O)cc(C(C)(C)C)c1 [Example 27, (S)-2-(3-aminopiperidin-1-yl)-4-((3-(tert-butyl)-5-(dimethylcarbamoyl)phenyl)amino) pyrimidine-5-carboxamide]
CAMK1d Tm-Shift (CAMK1D [1]): 12.5 °C | SYK Tm-Shift (SYK): 0.4 °C

CC(C)(C)c1cc(Nc2nc(N3CCC[C@H](N)C3)ncc2C(N)=O)cc(S(=O)(=O)N2CCCC2)c1 [Example 103, (S)-2-(3-aminopiperidin-1-yl)-4-((3-(tert-butyl)-5-(pyrrolidin-1-ylsulfonyl)phenyl)amino)pyrimidine-5-carboxamide]
ΔTm at 10 µM (CAMK1D [1]): 12.2 °C | SYK Tm-Shift (SYK; [3]): 0.7 °C

Cc1ccc(Nc2nc(N3CCC[C@H](N)C3)ncc2C(N)=O)cc1S(=O)(=O)N1CCCCC1 [Example 6, (S)-2-(3-aminopiperidin-1-yl)-4-((4-methyl-3-(piperidin-1-ylsulfonyl)phenyl)amino) pyrimidine-5-carboxamide]
CAMK1d Tm-Shift (CAMK1D [1]): 9.9 °C | SYK Tm-Shift (SYK): 3.3 °C

CC(C)(C)c1cc(Nc2nc(N3CCC[C@H](N)C3)ncc2C(N)=O)cc(C(=O)N2CCCC2)c1 [Example 28, (S)-2-(3-aminopiperidin-1-yl)-4-((3-(tert-butyl)-5-(pyrrolidine-1-carbonyl)phenyl)amino)pyrimidine-5-carboxamide]
ΔTm at 10 µM (CAMK1D [1]): 11.8 °C | SYK Tm-Shift (SYK; [3]): 0.5 °C

NC(=O)c1cnc(N2CCC[C@H](N)C2)nc1Nc1cc(-c2ccccc2)c2cn[nH]c2c1 [Example 60, (S)-2-(3-aminopiperidin-1-yl)-4-((4-phenyl-1H-indazol-6-yl)amino)pyrimidine-5-carboxamide]
ΔTm at 10 µM (CAMK1D [1]): 9.9 °C | pIC50 (CAMK1D [2]): 8.00

CC(C)(C)c1cc(Nc2nc(N3CCC[C@H](N)C3)ncc2C(N)=O)cc(S(=O)(=O)N2CCOCC2)c1 [Example 104, (S)-2-(3-aminopiperidin-1-yl)-4-((3-(tert-butyl)-5-(morpholinosulfonyl)phenyl)amino) pyrimidine-5-carboxamide]
CAMK1d Tm-Shift (CAMK1D [1]): 11.5 °C | SYK Tm-Shift (SYK): 0.9 °C

CC1(C)COCCN1C(=O)c1cc(Nc2nc(N3CCC[C@H](N)C3)ncc2C(N)=O)cc(C(F)(F)F)c1 [Example 32, (S)-2-(3-aminopiperidin-1-yl)-4-((3-(3,3-dimethylmorpholine-4-carbonyl)-5-(trifluoromethyl)phenyl)amino)pyrimidine-5-carboxamide]
ΔTm at 10 µM (CAMK1D [1]): 11.2 °C | SYK Tm-Shift (SYK; [3]): 2.1 °C

CN(C)S(=O)(=O)c1cc(Nc2nc(N3CCC[C@H](N)C3)ncc2C(N)=O)cc(C(C)(C)C)c1 [Example 105, (S)-2-(3-aminopiperidin-1-yl)-4-((3-(tert-butyl)-5-(N,N-dimethylsulfamoyl)phenyl)amino) pyrimidine-5-carboxamide]
CAMK1d Tm-Shift (CAMK1D [1]): 12.9 °C | SYK Tm-Shift (SYK): 1.3 °C

CNS(=O)(=O)c1cc(Nc2nc(Cl)ncc2C(N)=O)cc(C(F)(F)F)c1 [Example 108, 2-chloro-4-((3-(N-methylsulfamoyl)-5-(trifluoromethyl)phenyl)amino)pyrimidine-5-carboxamide]
ΔTm at 10 µM (CAMK1D [1]): 10.7 °C | SYK Tm-Shift (SYK; [3]): 0.3 °C

CN(C)CCN(C)C(=O)c1cccc(Nc2nc(N3CCC[C@H](N)C3)ncc2C(N)=O)c1 [Example 25, (S)-2-(3-aminopiperidin-1-yl)-4-((3-((2-(dimethylamino)ethyl)(methyl)carbamoyl)phenyl)amino) pyrimidine-5-carboxamide]
CAMK1d Tm-Shift (CAMK1D [1]): 8.1 °C | SYK Tm-Shift (SYK): 0.7 °C

CC(C)(C)c1cc(Nc2nc(N3CCC[C@@H](N)C3)ncc2C(N)=O)cc(C(C)(C)C)c1 [Example 7, (R)-2-(3-aminopiperidin-1-yl)-4-((3,5-di-tert-butylphenyl)amino)pyrimidine-5-carboxamide hydrochloride]
ΔTm at 10 µM (CAMK1D [1]): 10.6 °C

CC(C)(C#N)c1cccc(Nc2nc(N3CCC[C@H](N)C3)ncc2C(N)=O)c1 [Example 4, (S)-2-(3-aminopiperidin-1-yl)-4-((3-(2-cyanopropan-2-yl)phenyl)amino)pyrimidine-5-carboxamide]
ΔTm at 10 µM (CAMK1D [1]): 9 °C

Cc1ccccc1-c1cc(Nc2nc(N3CCC[C@H](N)C3)ncc2C(N)=O)cc(C(=O)N2CCOCC2)c1 [Example 44, (S)-2-(3-aminopiperidin-1-yl)-4-((2′-methyl-5-(morpholine-4-carbonyl)-[1,1′-biphenyl]-3-yl)amino)pyrimidine-5-carboxamide]
ΔTm at 10 µM (CAMK1D [1]): 10.9 °C | SYK Tm-Shift (SYK; [3]): −0.3 °C

CC(C)(C)c1cc(Nc2nc(N3CCC[C@H](N)C3)ncc2C(N)=O)cc(C(=O)N2CCOCC2)c1 [Example 29, (S)-2-(3-aminopiperidin-1-yl)-4-((3-(tert-butyl)-5-(morpholine-4-carbonyl)phenyl)amino)pyrimidine-5-carboxamide]
ΔTm at 10 µM (CAMK1D [1]): 12.4 °C | SYK Tm-Shift (SYK; [3]): 0.3 °C

COC1(c2cc(Nc3nc(N4CCC[C@H](N)C4)ncc3C(N)=O)cc(C(F)(F)F)c2)CC1 [Example 122, (S)-2-(3-aminopiperidin-1-yl)-4-((3-(1-methoxycyclopropyl)-5-(trifluoromethyl)phenyl)amino)pyrimidine-5-carboxamide]
ΔTm at 10 µM (CAMK1D [1]): -0.8 °C

COC(=O)c1cc(Nc2nc(N3CCC[C@H](N)C3)ncc2C(N)=O)cc(C(C)(C)C#N)c1 [Example 45, Methyl (S)-3-((2-(3-aminopiperidin-1-yl)-5-carbamoylpyrimidin-4-yl)amino)-5-(2-cyanopropan-2-yl)benzoate]
ΔTm at 10 µM (CAMK1D [1]): 12.6 °C | SYK Tm-Shift (SYK; [3]): 4.6 °C

CC(C)(C)c1cc(Nc2nc(N3CCCC(N)C3)ncc2C(N)=O)cc(C(C)(C)C)c1 (stereo not shown) [Example 2, 2-(3-aminopiperidin-1-yl)-4-((3,5-di-tert-butylphenyl)amino)pyrimidine-5-carboxamide]
ΔTm at 10 µM (CAMK1D [1]): 14 °C

CC1(C)COCCN1C(=O)c1cccc(Nc2nc(N3CCC[C@H](N)C3)ncc2C(N)=O)c1 [Example 30, (S)-2-(3-aminopiperidin-1-yl)-4-((3-(3,3-dimethylmorpholine-4-carbonyl)phenyl)amino) pyrimidine-5-carboxamide]
CAMK1d Tm-Shift (CAMK1D [1]): 9.5 °C | SYK Tm-Shift (SYK): 2.0 °C
